According to patent publication US8993637B2 (priority 2013, dated 2015):

How the values were obtained:
[1] = test system: mouse FSGS model (adriamycin-induced, BALB/c mice); experiment: Mouse FSGS model: urine protein and renal function (serum BUN, Cr); format: in vivo; conditions: Citral 200 mg/kg daily by gavage
Protocol: A progressive type of mouse FSGS model was used, particularly characterized by EPHLs, a key histopathology index of progression of FSGS, peri-glomerular inflammation, and progressive glomerular hyalinosis/sclerosis. The FSGS model was induced in 8-week-old male BALB/c mice (National Laboratory Animal Center, Taipei, Taiwan) by intravenous injection of a single dose of adriamycin (0.10 mg/10 g body weight) (Pfizer, New York, N.Y.) as described previously. […] Age- and sex-matched BALB/c mice were used as normal controls. Urine samples were collected in metabolic cages on days 3, 7, 14, 21, and 28. Renal cortical tissues and blood samples were collected when the mice were sacrificed and stored appropriately for further analysis. The concentration of urine protein was determined using BCA kits (Pierce, Rockford, Ill.) as described previously and normalized to urine creatinine (Cr) levels measured using kits (Wako Pure Chemical Industries, Osaka, Japan), as described previously. Serum levels of blood urea nitrogen (BUN) and Cr were determined using BUN kits and Cr kits (both from Fuji Dry-Chem Slide, Fuji Film Medical, Tokyo, Japan), as described previously. Urine and blood samples were collected from the mice at different time points, which were analyzed for proteinuria and blood urea nitrogen (BUN) and creatinine (Cr) levels by using a urease assay and a picric acid method respectively (Nephron 1998; 78: 440-452).

ROS and NO = experiment: Mouse FSGS model: superoxide anion (ROS), DHE and NO in renal tissue, serum, urine; format: in vivo; conditions: days 14 and 28
Protocol: A progressive type of mouse FSGS model was used, particularly characterized by EPHLs, a key histopathology index of progression of FSGS, peri-glomerular inflammation, and progressive glomerular hyalinosis/sclerosis. The FSGS model was induced in 8-week-old male BALB/c mice (National Laboratory Animal Center, Taipei, Taiwan) by intravenous injection of a single dose of adriamycin (0.10 mg/10 g body weight) (Pfizer, New York, N.Y.) as described previously. […] Age- and sex-matched BALB/c mice were used as normal controls. Urine samples were collected in metabolic cages on days 3, 7, 14, 21, and 28. Renal cortical tissues and blood samples were collected when the mice were sacrificed and stored appropriately for further analysis. The concentration of urine protein was determined using BCA kits (Pierce, Rockford, Ill.) as described previously and normalized to urine creatinine (Cr) levels measured using kits (Wako Pure Chemical Industries, Osaka, Japan), as described previously. Serum levels of blood urea nitrogen (BUN) and Cr were determined using BUN kits and Cr kits (both from Fuji Dry-Chem Slide, Fuji Film Medical, Tokyo, Japan), as described previously. Superoxide anion levels in serum, urine, and kidney tissues were determined as described previously. The results were expressed as relative luminescence units (RLU) per 15 min per milliliter (i.e., RLU/15 min/ml) for serum and urine samples or per milligram dry weight (i.e., RLU/15 min/mg dry weight) for kidney tissues. In addition, renal superoxide anion levels were measured by dihydroethidium (DHE) binding, fluorescence being quantified by counting the percentage of the total nuclei that were positive per kidney cross section as described previously. NO levels in serum and urine were measured using NO detection kits (Abeam, Cambridge, Mass.) according to the manufacturer's instructions.

[2] = test system: p47phox, Nrf2, NQO1, HO-1; experiment: Mouse FSGS model: renal p47phox, nuclear Nrf2, NQO1 (Western blot) and HO-1 (ELISA); format: in vivo
Protocol: A progressive type of mouse FSGS model was used, particularly characterized by EPHLs, a key histopathology index of progression of FSGS, peri-glomerular inflammation, and progressive glomerular hyalinosis/sclerosis. The FSGS model was induced in 8-week-old male BALB/c mice (National Laboratory Animal Center, Taipei, Taiwan) by intravenous injection of a single dose of adriamycin (0.10 mg/10 g body weight) (Pfizer, New York, N.Y.) as described previously. […] Age- and sex-matched BALB/c mice were used as normal controls. Urine samples were collected in metabolic cages on days 3, 7, 14, 21, and 28. Renal cortical tissues and blood samples were collected when the mice were sacrificed and stored appropriately for further analysis. The concentration of urine protein was determined using BCA kits (Pierce, Rockford, Ill.) as described previously and normalized to urine creatinine (Cr) levels measured using kits (Wako Pure Chemical Industries, Osaka, Japan), as described previously. Serum levels of blood urea nitrogen (BUN) and Cr were determined using BUN kits and Cr kits (both from Fuji Dry-Chem Slide, Fuji Film Medical, Tokyo, Japan), as described previously. Cytoplasmic and nuclear proteins from renal tissues were prepared using a kit (Active Motif, Tokyo, Japan) according to the manufacturer's instructions and target proteins detected by immunoblotting using goat antibodies against mouse Nrf2 or p47^phox, (Santa Cruz Biotechnology, Santa Cruz, Calif.) or rabbit antibodies against mouse NQO1 (Abcam), caspase-3, caspase-8, or caspase-9 (all from Cell Signaling Technology, MA) or Bcl2 or Bax (both from Santa Cruz Biotechnology), then with horseradish-conjugated rabbit anti-goat IgG antibodies or goat-anti-rabbit IgG antibodies (both from Santa Cruz Biotechnology) as described previously. Anti-β-actin antibody (Santa Cruz Biotechnology) was used as internal controls for the nuclear and cytosolic target proteins, respectively. Renal HO-1 levels were measured using a commercial ELISA kit (R&D Systems, Minneapolis, Minn.) according to the manufacturer's instructions.

RAW 264.7 macrophages = experiment: Pro-inflammatory cytokine ELISA in LPS-activated macrophages; format: cell-based, murine; conditions: LPS 1 μg/ml 24 h, culture medium
Protocol: ROS production was measured as the relative fluorescence intensity. […] The data are expressed as the mean±SD for three separate experiments. *p<0.05, **p<0.01 compared to the LPS-treated group. RAW-Blue™ cells (Murine macrophages RAW264.7 stably transfected with the NF-κB reporter gene) purchased from InvivoGen (San Diego, Calif.). LPS (from Escherichia coli 0111:B4) and mouse antibodies against phospho-ERK1/2, phospho-JNK1/2, and phospho-p38 (all from Sigma, St. Louis, Mo.). Rabbit antibodies against mouse ERK1, JNK1, and p38, and HRP-labeled second antibodies were purchased from Santa Cruz Biotechnology, and IL-1β, IL-6, and TNF-α ELISA kits from R&D Systems. ROS production assay, NO production assay, NF-κB reporter assay, ELISA, and Western blotting were performed as described previously.

## CC(C)=CCCC(C)=CC=O (racemic) [Citral, 3,7-dimethyl-2,6-octadienal]
[1]; day 14, FSGS+Citral vs FSGS+vehicle mice
  proteinuria (urine protein): slightly inhibited
[1]; day 21, vs FSGS+vehicle mice, p<0.005
  proteinuria (urine protein): markedly inhibited
[1]; day 28, vs FSGS+vehicle mice, p<0.01
  proteinuria (urine protein): markedly inhibited
[1]; days 14 and 28, p<0.05
  serum levels of BUN: almost, or completely, suppressed
  serum levels of Cr: almost, or completely, suppressed
ROS and NO; p<0.01
  renal DHE levels (in situ ROS): suppressed
ROS and NO; vs FSGS+vehicle mice, p<0.01
  superoxide anion levels in renal tissues: markedly decreased
  superoxide anion levels in serum: markedly decreased
  superoxide anion levels in urine: markedly decreased
ROS and NO; vs FSGS+vehicle, p<0.05
  NO levels in serum: significantly reduced
  NO levels in urine: significantly reduced
[2]; day 14, kidney
  decrease of nuclear Nrf2 expression: inhibited at day 14 in FSGS+Citral mice, although not statistically significant
[2]; day 28, cytosolic, p<0.01
  increase of renal p47phox protein levels: inhibited
[2]; day 28, relative to normal control mice, p<0.01
  cytosolic levels of NQO1: significantly higher
[2]; day 28, vs FSGS+vehicle (p<0.005) and normal control mice (p<0.05)
  nuclear Nrf2 levels: greatly increased
[2]; days 14 and 28, vs FSGS+vehicle mice, p<0.05 or p<0.01
  renal HO-1 levels: significantly elevated
RAW 264.7 macrophages
  secretion level of IL-1β: inhibited
  secretion level of IL-6: inhibited
  secretion level of TNF-α: inhibited
